{"source": "patent US20150209315A1", "about": "(Cumberland Pharmaceuticals, priority 2009, published 2015)", "type_in_all_cases": "in vivo, human", "key": {"[1]": {"tested_on": "post-operative adult patients", "assay": "Example 1: morphine usage in the 24 hours following surgery", "experimental": "The reference product, dose and mode of administration was normal saline, 100 ml, intravenous. Saline was chosen as the control group (placebo) for this study, to ensure blinding and allow for analysis of treatment effect. The duration of treatment was up to 5 days post surgery. […] Groups were stratified according to two age groups: <45 and >45 to 70 years of age and two weight groups: <75 kg and >75 kg of weight. The study participants were randomized based on criteria for an efficacy evaluable population (EEP) versus an intent to treat population (ITT). The ITT included all patients who were randomized and received at least a partial dose of ibuprofen. […] Eligible patients were randomized to one of the three treatment groups. All patients were able (but were not required) to receive morphine until approximately 45 minutes before the end of the surgical procedure. After that time, only fentanyl was allowed until the end of the operation. The first dose of ibuprofen was administered at approximately the initiation of skin closure. […] Other than ibuprofen or placebo, only morphine was administered for pain. […] Additional morphine could be administered at the discretion of the treating physician if adequate pain control had still not been achieved. Patients given non-morphine analgesics were classified as treatment failures. Treatment failures were not replaced. […] Secondary efficacy parameters were also evaluated and compared among the treatment groups using appropriate statistical methods described in the statistical analysis section of the protocol. Safety information was compared between the treatment groups using Chi-Square or Cochran-Mantel-Haenszel test. Demographic, background and baseline information among the treatment groups was also described. […] Efficacy analyses were performed on the Intent to Treat (ITT) population and the Efficacy Evaluable Population (EEP). In addition a subset of EEP patients who underwent abdominal hysterectomies (AH) were analyzed separately to evaluate efficacy in a more homogenous population."}, "[2]": {"tested_on": "post-operative adult patients", "assay": "Example 2: patient self-assessment of pain, VAS with movement", "conditions": "800 mg"}, "[3]": {"tested_on": "patients undergoing orthopedic surgical procedures", "assay": "Example 3: pain with movement measured with VAS", "conditions": "800 mg, immediately post-surgery", "experimental": "Efficacy was measured by comparing the reduction in morphine use over the 24 hours immediately post surgery. Efficacy was measured by reduction in the requirement for the narcotic analgesic, morphine, in the 24 hours post surgery.\nThe Clinical Trial Material (“CTM”) was mixed in 250 mL normal saline. Saline was chosen as the control group (placebo) for this study, to ensure blinding and allow for analysis of treatment effect.\nThe study participants were randomized based on criteria for an efficacy evaluable population (EEP) versus an intent to treat population (ITT).\nEligible patients were randomized to one of the two treatment groups.\nPatients were evaluated and compared for morphine requirements between the active doses and placebo using analysis of variance and covariance procedures at an overall alpha level of 0.05. Secondary efficacy parameters were also evaluated and compared among the treatment groups using appropriate statistical methods described in the statistical analysis section of the protocol. For the adverse events, instead of using an unadjusted Chi-square test and a Cochran-Mantel-Haenszel test adjusted for center to compare treatment groups with respect to the numbers of patients reporting AEs, a Fisher's exact test was used to compare treatment groups for any AE that was reported by five or more patients."}, "[4]": {"conditions": "400 mg, AH (abdominal hysterectomies)"}, "[5]": {"conditions": "800 mg, AH (abdominal hysterectomies)"}}, "note": "“And” between values parts separate entries of the source, which are not always exact repeats. Equal values may be shown once."}
{"smiles": "CC(C)Cc1ccc(C(C)C(=O)O)cc1", "note": "(stereo not drawn) [Ibuprofen, 2-(4-isobutylphenyl) propionic acid]", "values": [{"measurement": "Morphine Usage in the 24 Hours Following Surgery, % Reduction vs. PBO", "setting": "[1]; [4]", "result": "15.9% and 16%"}, {"measurement": "Morphine Usage in the 24 Hours Following Surgery, Median", "setting": "[1]; [4]", "result": 45.00}, {"measurement": "Morphine Usage in the 24 Hours Following Surgery, % Reduction vs. PBO", "setting": "[1]; 400 mg, AH (abdominal hysterectomies), listed as IVIb", "result": 15.89, "unit": "%"}, {"measurement": "Morphine Usage in the 24 Hours Following Surgery, % Reduction vs. PBO", "setting": "[1]; 400 mg, EEP", "result": 4.4, "unit": "%"}, {"measurement": "Morphine Usage in the 24 Hours Following Surgery, Median", "setting": "[1]; 400 mg, EEP", "result": 43.00}, {"measurement": "Morphine Usage in the 24 Hours Following Surgery, % Reduction vs. PBO", "setting": "[1]; 400 mg, EEP, listed as IVIb", "result": 4.44, "unit": "%"}, {"measurement": "Morphine Usage in the 24 Hours Following Surgery, % Reduction vs. PBO", "setting": "[1]; 400 mg, ITT", "result": 2.76, "unit": "%"}, {"measurement": "Morphine Usage in the 24 Hours Following Surgery, Median", "setting": "[1]; 400 mg, ITT", "result": 44.00}, {"measurement": "Morphine Usage in the 24 Hours Following Surgery, % Reduction vs. PBO", "setting": "[1]; [5]", "result": "41.1% and 41%"}, {"measurement": "Morphine Usage in the 24 Hours Following Surgery, Median", "setting": "[1]; [5]", "result": 31.50}, {"measurement": "Morphine Usage in the 24 Hours Following Surgery, % Reduction vs. PBO", "setting": "[1]; 800 mg, AH (abdominal hysterectomies), listed as IVIb", "result": 41.12, "unit": "%"}, {"measurement": "Morphine Usage in the 24 Hours Following Surgery, Median", "setting": "[1]; 800 mg, EEP", "result": 33.50}, {"measurement": "Morphine Usage in the 24 Hours Following Surgery, % Reduction vs. PBO", "setting": "[1]; 800 mg, EEP, listed as IV ibuprofen", "result": 26, "unit": "%"}, {"measurement": "Morphine Usage in the 24 Hours Following Surgery, % Reduction vs. PBO", "setting": "[1]; 800 mg, EEP, listed as IVIb", "result": 25.56, "unit": "%"}, {"measurement": "Morphine Usage in the 24 Hours Following Surgery, % Reduction vs. PBO", "setting": "[1]; 800 mg, ITT", "result": 21.6, "unit": "%"}, {"measurement": "Morphine Usage in the 24 Hours Following Surgery, Median", "setting": "[1]; 800 mg, ITT", "result": 35.50}, {"measurement": "Morphine Usage in the 24 Hours Following Surgery, % Reduction vs. PBO", "setting": "[1]; 800 mg, ITT, listed as IVIb", "result": 21.55, "unit": "%"}, {"measurement": "VAS Score measured with Movement (median)", "setting": "[2]; EEP, 1-Hour", "result": 9.0}, {"measurement": "VAS Score measured with Movement, % Reduction vs Placebo", "setting": "[2]; EEP, 1-Hour", "result": "−12.5", "unit": "%"}, {"measurement": "VAS Score measured with Movement (median)", "setting": "[2]; EEP, 3-Hour", "result": 7.0}, {"measurement": "VAS Score measured with Movement, % Reduction vs Placebo", "setting": "[2]; EEP, 3-Hour", "result": 0.0, "unit": "%"}, {"measurement": "VAS Score measured with Movement (median)", "setting": "[2]; EEP, 6-Hour", "result": 6.0}, {"measurement": "VAS Score measured with Movement, % Reduction vs Placebo", "setting": "[2]; EEP, 6-Hour", "result": 0.0, "unit": "%"}, {"measurement": "VAS Score measured with Movement (median)", "setting": "[2]; EEP, 9-Hour", "result": 5.0}, {"measurement": "VAS Score measured with Movement, % Reduction vs Placebo", "setting": "[2]; EEP, 9-Hour", "result": 0.0, "unit": "%"}, {"measurement": "VAS Score measured with Movement (median)", "setting": "[2]; EEP, 12-Hour", "result": 4.0}, {"measurement": "VAS Score measured with Movement, % Reduction vs Placebo", "setting": "[2]; EEP, 12-Hour", "result": 20.0, "unit": "%"}, {"measurement": "VAS Score measured with Movement (median)", "setting": "[2]; EEP, 15-Hour", "result": 3.0}, {"measurement": "VAS Score measured with Movement (median)", "setting": "[2]; EEP, 18-Hour", "result": 3.0}, {"measurement": "VAS Score measured with Movement, % Reduction vs Placebo", "setting": "[2]; EEP, 18-Hour", "result": 25.0, "unit": "%"}, {"measurement": "VAS Score measured with Movement (median)", "setting": "[2]; EEP, 21-Hour", "result": 3.0}, {"measurement": "VAS Score measured with Movement, % Reduction vs Placebo", "setting": "[2]; EEP, 21-Hour", "result": 25.0, "unit": "%"}, {"measurement": "VAS Score measured with Movement (median)", "setting": "[2]; EEP, 24-Hour", "result": 3.0}, {"measurement": "VAS Score measured with Movement, % Reduction vs Placebo", "setting": "[2]; EEP, 24-Hour", "result": 40.0, "unit": "%"}, {"measurement": "VAS Score measured with Movement (median)", "setting": "[2]; ITT, 1-Hour", "result": 9.0}, {"measurement": "VAS Score measured with Movement, % Reduction vs Placebo", "setting": "[2]; ITT, 1-Hour", "result": "−12.5", "unit": "%"}, {"measurement": "VAS Score measured with Movement (median)", "setting": "[2]; ITT, 3-Hour", "result": 7.0}, {"measurement": "VAS Score measured with Movement, % Reduction vs Placebo", "setting": "[2]; ITT, 3-Hour", "result": 0.0, "unit": "%"}, {"measurement": "VAS Score measured with Movement (median)", "setting": "[2]; ITT, 6-Hour", "result": 6.0}, {"measurement": "VAS Score measured with Movement, % Reduction vs Placebo", "setting": "[2]; ITT, 6-Hour", "result": 0.0, "unit": "%"}, {"measurement": "VAS Score measured with Movement (median)", "setting": "[2]; ITT, 9-Hour", "result": 5.0}, {"measurement": "VAS Score measured with Movement, % Reduction vs Placebo", "setting": "[2]; ITT, 9-Hour", "result": 3.8, "unit": "%"}, {"measurement": "VAS Score measured with Movement (median)", "setting": "[2]; ITT, 12-Hour", "result": 4.3}, {"measurement": "VAS Score measured with Movement, % Reduction vs Placebo", "setting": "[2]; ITT, 12-Hour", "result": 10.4, "unit": "%"}, {"measurement": "VAS Score measured with Movement (median)", "setting": "[2]; ITT, 15-Hour", "result": 3.4}, {"measurement": "VAS Score measured with Movement, % Reduction vs Placebo", "setting": "[2]; ITT, 15-Hour", "result": 22.7, "unit": "%"}, {"measurement": "VAS Score measured with Movement (median)", "setting": "[2]; ITT, 18-Hour", "result": 3.0}, {"measurement": "VAS Score measured with Movement (median)", "setting": "[2]; ITT, 21-Hour", "result": 3.0}, {"measurement": "VAS Score measured with Movement, % Reduction vs Placebo", "setting": "[2]; ITT, 21-Hour", "result": 34.8, "unit": "%"}, {"measurement": "VAS Score measured with Movement (median)", "setting": "[2]; ITT, 24-Hour", "result": 3.6}, {"measurement": "VAS Score measured with Movement, % Reduction vs Placebo", "setting": "[2]; ITT, 24-Hour", "result": 20.0, "unit": "%"}, {"measurement": "decrease in the mean VAS with movement", "setting": "[3]; AT", "result": 13.9, "unit": "%"}, {"measurement": "decrease in the mean VAS with movement", "setting": "[3]; efficacy evaluable", "result": 13.6, "unit": "%"}, {"measurement": "decrease in the mean VAS with movement", "setting": "[3]; intent-to-treat", "result": 14.3, "unit": "%"}]}
